Reference: patent US11207320B2, “Compositions and methods for cancer expressing PDE3A or SLFN12” (The Broad Institute, Inc., priority 2015, dated 2021)
Blank lines part the entries; values can stand above or below the molecule they belong to.

What was measured:
[1] = test system: HeLa cells; type: cell-based; settings: 48 hours; for rescue of DNMDP cytotoxicity / competition with DNMDP: dose-response up to 10 μM, co-treated with DNMDP; for rescue of cell death induced by DNMDP, rank in bioactives screen: 20 μM compound + 30 nM DNMDP, 1600 compounds
Method: HeLa cells were co-treated with 30 nM DNMDP (the EC70 concentration) and 20 μM of each bioactive compound. Cell viability after 48-hour treatment was assessed by ATP consumption as described earlier.
1000 HeLa cells were plated in a 384-well plate in 40 μl of DMEM supplemented with 10% Fetal Bovine Serum and 1% Pen/Strep. 24 hours after plating, a compound-library of 1600 bioactive molecules (Pharmacon) was added at a concentration of 20 μM. In parallel to bioactive compound incubation, DNMDP was added to a final concentration of 30 nM and incubated for 48 hours. Cell viability was assessed as described in Compound library screening in NCI-H1734 and A549 cell lines.

[2] = test system: HeLa cells; assay: DNMDP cytotoxicity after targeting PDE3A locus using CRISPR; type: cell-based; settings: HeLa infected with Cas9 and sgRNAs against PDE3A
Method: FIG. 11A is a Western blot. HeLa cells were infected with Cas9 and indicated guide RNAs (sgRNA) against PDE3A. Western blots were probed for PDE3A at indicated time points. FIG. 11B is a bar graph showing percent rescue of HeLa cells that were infected with indicated sgRNAs for two weeks and treated with 1 μM of 6-(4-(diethylamino)-3-nitrophenyl)-5-methyl-4,5-dihydropyridazin-3(2H)-one (DNMDP) for 48 hours. Percent rescue was normalized to the Cas9-only control. FIG. 11C is a plot showing viability of cells infected with indicated sgRNAs and treated with various concentrations of 6-(4-(diethylamino)-3-nitrophenyl)-5-methyl-4,5-dihydropyridazin-3(2H)-one (DNMDP).
Based on the observations that DNMDP-sensitive cells expressed high levels of PDE3A, and that DNMDP competed with non-cytotoxic inhibitors for PDE3A binding, it was hypothesized that DNMDP mediated its cytotoxic phenotype through the interaction with PDE3A and that PDE3A abundance was a direct cellular determinant of DNMDP sensitivity. To validate this hypothesis, the effect of reducing levels of PDE3A on the response to DNMDP was tested. […] In an independent approach using an siRNA smart-pool containing four different siRNAs targeting PDE3A, PDE3A expression was reduced in HeLa cell line with a maximum efficiency of 70% between 24 and 72 hours after transfection. […]

[3] = test system: HeLa cells; assay: Compound sensitivity testing in cell lines (48 h viability); type: cell-based; settings: HeLa
Method: 1500 NCI-H1734 or 1000 A549 cells were plated in a 384-well plate in 40 μl of RPMI supplemented with 10% Fetal Bovine Serum and 1% Pen/Strep. 24 hours after plating, a compound-library of 1924 small molecules was added at a concentration of 10 μM. Staurosporine was used a positive control for cytotoxicity at a concentration of 10 μM, and DMSO was used a negative control at a concentration of 1%. All compounds were incubated for 48 hours with indicated small molecules. After 48 hours, 384-well plates were removed from the incubator and allowed to cool to room temperature for 20 minutes. Cell viability was assessed by adding 40 μl of a 25% CELLTITERGLO® (Promega) in PBS with a THERMO COMBI™ or multichannel-pipette and incubated for 10 minutes. The luminescence signal was read using a Perkin-Elmer EnVision. Viability percentage was calculated by normalizing to DMSO controls.
1000 HeLa (DMEM), 1000 A549 (RPMI), 500 MCF-7 (DMEM), 4000 PC3 (F12-K), 1000 NCI-H2122 (RPMI) or 1500 NCI-H1563 (RPMI) cells were plated in a 384-well plate in 40 μl of corresponding growth media supplemented with 10% Fetal Bovine Serum. 24 hours after plating, indicated compounds were added at indicated concentrations and incubated for 48 hours. Cell viability was assessed as described in Compound library screening in NCI-H1734 and A549 cell lines.

[4] = biological target: PDE3A (Homo sapiens, UniProt Q14432); assay: Linker-affinity purification of molecular target of DNMDP and immunoblotting; type: binding; design: Immunoprecipitation of endogenous PDE3A in HeLa cells; endogenous in cells; host or cells: HeLa; settings: HeLa cell lysate, competitor 10 μM, immunoblot for PDE3A
Method: To identify the molecular target of DNMDP, an affinity purification was performed using an (R)-des-nitro-DNMDP solid-phase tethered linker analogue (FIG. 10A) incubated with HeLa cell lysate. […] It was competed for the molecular target by adding either an excess of trequinsin or separate enantiomers of DNMDP, where only the (R)-enantiomer was cytotoxic. […] Binding of PDE3A to the linker analogue was blocked by both trequinsin and (R)-DNMDP, but not by the non-cytotoxic enantiomer (S)-[…]. 9C). Thus both trequinsin and (R)-DNMDP prevented the binding of PDE3A to the tethered DNMDP analogue, and it was concluded that both molecules bind PDE3A directly. HeLa cells were washed with ice-cold PBS before lysed with NP-40 lysis buffer (150 mM NaCl, 10% glycerol, 50 mM Tris-Cl pH 8.0, 50 mM MgCl2, 1% NP-40) supplemented with EDTA-free protease inhibitors (Roche) and phosphatase inhibitor mixtures I and II (Calbiochem). […] Samples were washed three times with lysis buffer containing corresponding compound concentrations of 10 μM. Proteins bound to Affi-Gel 102 resin were reduced, denatured, and separated using Tris-Glycine gels (Novex) and transferred to nitrocellulose membranes using the iBlot transfer system (Novex). Membranes were incubated overnight at 4° C. with primary antibodies against PDE3A (1:1000, Bethyl). […]

[5] = biological target: T1, PDE3A and SLFN12 (Homo sapiens, UniProt Q14432); assay: Validation of DNMDP-induced PDE3A protein interactions using immunoprecipitation and immunoblotting; type: cell-based; settings: FIG. 20, affinity reagents, immunoblot
T1 construct: Endogenous PDE3A was immunoprecipitated; host or cells: HeLa
Method: FIG. 19 is an immunoblot showing that DNMDP induces interaction between PDE3A and SIRT7 and SLFN12 in HeLa cells. HeLa cells were transfected with indicated plasmids and treated with indicated compounds with a final concentration of 10 μM for four hours. Endogenous PDE3A was immunoprecipitated and immunoblotted for V5 to identify novel interaction with SIRT7 and SLFN12 (upper two panels). Immunoprecipitate input was immunoblotted for PDE3A and V5 (lower two panels). V5-SLFN12 was undetectable in whole cell lysate.
FIG. 20 is an immunoblot showing confirmation of mass spectrometric results herein using affinity reagents.
HeLa cells were transfected with ORF overexpression constructs expressing V5-tagged SIRT7, V5-tagged SLFN12, or V5-tagged GFP. ORF expression constructs were obtained from the TRC (clone IDs: TRCN0000468231, TRCN0000476272, ccsbBroad304_99997). At 72 hours post transfection, cells were treated with 10 μM DNMDP or trequinsin for 4 hours followed by lysis using the ModRipa lysis buffer and immunoprecipitation of PDE3A. For each condition, 2 mg total protein lysate was incubated with 1 μg of anti-PDE3A antibody at 4° C. overnight, after which 7.5 μl each of Protein A- and Protein G-Dynabeads (Life Technologies 10001D and 10003D) were added and incubated for another 1 hour. Beads were washed and bound proteins were eluted with 30 μl of LDS PAGE gel loading buffer. Input (˜60 μg total protein lysate) and IP products were resolved on 4-12% Tris-Glycine PAGE gels and immunoblotted with an anti-V5 antibody (Life Technologies R96205, 1:5000), the Bethyl anti-PDE3A antibody (1:1000), and secondary antibodies from LiCOR Biosciences (Cat.#926-32210 and 926068021, each at 1:10,000). Blots were washed and imaged using a LiCOR Odyssey infrared imager.

[6] = biological target: T2, PDE3A(677-1141) (Homo sapiens, UniProt Q14432); assay: Differential scanning fluorimetry (DSF) binding; settings: 5 μM protein, 100 μM compound
T2 construct: purified PDE3A catalytic domain, PDE3A(677-1141)
Method: Binding buffer: 20 mM Hepes pH 7.4, 100 μM TCEP, 1 mM MgCl2, 150 mM NaCl.

T2 sequence (Q14432 677-1141): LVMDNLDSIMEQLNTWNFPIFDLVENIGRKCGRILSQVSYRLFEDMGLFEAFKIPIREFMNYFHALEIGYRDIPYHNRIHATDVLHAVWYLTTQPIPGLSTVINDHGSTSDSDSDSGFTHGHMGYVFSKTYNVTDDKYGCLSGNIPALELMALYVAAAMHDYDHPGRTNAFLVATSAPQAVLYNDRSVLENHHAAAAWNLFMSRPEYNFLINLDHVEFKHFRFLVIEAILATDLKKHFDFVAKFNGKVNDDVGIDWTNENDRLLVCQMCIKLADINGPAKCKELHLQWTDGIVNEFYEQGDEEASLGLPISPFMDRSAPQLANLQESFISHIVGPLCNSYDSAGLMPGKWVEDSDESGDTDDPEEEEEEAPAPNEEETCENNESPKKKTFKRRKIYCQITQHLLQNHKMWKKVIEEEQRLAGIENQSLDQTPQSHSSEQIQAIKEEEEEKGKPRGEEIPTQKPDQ
Sequence of PDE3A (Q14432 whole entry): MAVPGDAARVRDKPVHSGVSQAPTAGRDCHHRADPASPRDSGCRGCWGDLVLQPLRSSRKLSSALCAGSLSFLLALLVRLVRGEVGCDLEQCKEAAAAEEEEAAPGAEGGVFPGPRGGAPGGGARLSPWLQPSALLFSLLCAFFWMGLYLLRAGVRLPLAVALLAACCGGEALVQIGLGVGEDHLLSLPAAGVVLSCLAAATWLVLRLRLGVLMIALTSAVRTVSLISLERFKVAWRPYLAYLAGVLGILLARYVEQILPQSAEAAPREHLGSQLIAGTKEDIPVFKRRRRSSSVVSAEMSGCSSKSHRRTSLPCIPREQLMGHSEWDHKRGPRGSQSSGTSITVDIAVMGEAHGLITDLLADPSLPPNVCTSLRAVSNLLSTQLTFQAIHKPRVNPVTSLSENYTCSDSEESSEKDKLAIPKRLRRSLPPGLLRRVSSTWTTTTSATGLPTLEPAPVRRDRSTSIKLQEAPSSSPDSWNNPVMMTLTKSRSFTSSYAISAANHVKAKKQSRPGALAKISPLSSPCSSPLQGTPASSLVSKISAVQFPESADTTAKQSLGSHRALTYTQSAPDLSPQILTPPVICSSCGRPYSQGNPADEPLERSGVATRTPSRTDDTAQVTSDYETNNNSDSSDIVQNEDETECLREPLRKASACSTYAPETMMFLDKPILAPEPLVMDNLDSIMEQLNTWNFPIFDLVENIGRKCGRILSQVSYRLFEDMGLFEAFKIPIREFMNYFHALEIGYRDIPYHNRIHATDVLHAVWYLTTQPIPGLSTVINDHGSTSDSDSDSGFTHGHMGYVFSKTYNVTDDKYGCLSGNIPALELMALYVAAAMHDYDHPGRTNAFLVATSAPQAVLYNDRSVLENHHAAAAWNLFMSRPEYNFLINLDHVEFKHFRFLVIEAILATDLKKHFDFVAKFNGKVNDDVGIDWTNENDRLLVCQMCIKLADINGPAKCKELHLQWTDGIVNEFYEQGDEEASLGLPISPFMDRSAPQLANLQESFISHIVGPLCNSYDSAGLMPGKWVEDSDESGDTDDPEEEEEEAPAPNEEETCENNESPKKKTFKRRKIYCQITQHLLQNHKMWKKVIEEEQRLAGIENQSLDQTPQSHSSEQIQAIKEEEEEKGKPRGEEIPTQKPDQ
T1 sequence (Q14432 whole entry): as above
T1 sequence (Q8IYM2 whole entry partner): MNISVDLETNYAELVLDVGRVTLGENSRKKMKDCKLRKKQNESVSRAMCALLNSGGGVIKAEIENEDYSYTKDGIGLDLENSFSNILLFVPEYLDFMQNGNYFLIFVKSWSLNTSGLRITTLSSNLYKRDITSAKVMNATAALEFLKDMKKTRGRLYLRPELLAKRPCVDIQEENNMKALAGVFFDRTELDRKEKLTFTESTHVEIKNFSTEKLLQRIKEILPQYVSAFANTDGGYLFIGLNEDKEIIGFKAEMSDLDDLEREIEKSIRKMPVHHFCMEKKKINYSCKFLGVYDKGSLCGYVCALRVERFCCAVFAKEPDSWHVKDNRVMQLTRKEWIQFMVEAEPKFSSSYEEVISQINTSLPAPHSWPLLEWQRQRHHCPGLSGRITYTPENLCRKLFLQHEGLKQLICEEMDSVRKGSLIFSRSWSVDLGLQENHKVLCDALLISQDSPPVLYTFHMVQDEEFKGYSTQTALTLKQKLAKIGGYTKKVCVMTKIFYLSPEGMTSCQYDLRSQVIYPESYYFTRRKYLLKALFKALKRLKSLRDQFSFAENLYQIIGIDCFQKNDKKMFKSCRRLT

SMILES: CCCc1nn(C)c2c(=O)[nH]c(-c3cc(S(=O)(=O)N4CCN(C)CC4)ccc3OCC)nc12 [sildenafil, 1-[4-ethoxy-3-(6,7-dihydro-1-methyl-7-oxo-3-propyl-1H-pyrazolo[4,3-d]pyrimidin-5-yl)phenylsulfonyl]-4-methylpiperazine]
rescue of DNMDP cytotoxicity / competition with DNMDP [1]: not effective competitors

SMILES: C[C@@H]1CC(=O)NN=C1c1ccc(N2CCOCC2)cc1 [Compound 3]
rescue of toxicity by PDE3A sgRNA2 and sgRNA3 [2]: significant rescue of toxicity

SMILES: O=C1CCc2cc(OCCCCc3nnnn3C3CCCCC3)ccc2N1 [cilostazol, 6-[4-(1-cyclohexyl-1H-tetrazol-5-yl)butoxy]-3,4-dihydro-2(1H)-quinolinone]
rescue of cell death induced by DNMDP, rank in bioactives screen [1]: three most potent compounds

SMILES: CCN(CC)c1ccc(C2=NNC(=O)C[C@@H]2C)cc1[N+](=O)[O-] [(S)-DNMDP]
effect on HeLa cell viability / cytotoxicity [3]: non-cytotoxic

SMILES: CC(C)C(=O)c1c(C(C)C)nn2ccccc12 [idubulast]
rescue of DNMDP cytotoxicity / competition with DNMDP [1]: not effective competitors

blocking of binding of PDE3A to the tethered linker analogue [4]: blocked | fold lower EC50 compared to the (S)-enantiomer [3]: 500 fold
SMILES: CCN(CC)c1ccc(C2=NNC(=O)C[C@H]2C)cc1[N+](=O)[O-] [(R)-DNMDP, (R)-6-(4-(diethylamino)-3-nitrophenyl)-5-methyl-4,5-dihydropyridazin-3(2H)-one]
effect on HeLa cell viability / cytotoxicity [3]: cytotoxic

SMILES: Cc1[nH]c(=O)c(C#N)cc1-c1ccncc1 [milrinone, 2-methyl-6-oxo-1,6-dihydro-3,4′-bipyridine-5-carbonitrile]
rescue of cell death induced by DNMDP, rank in bioactives screen [1]: three most potent compounds | rescue of DNMDP cytotoxicity / competition with DNMDP [1]: able to rescue DNMDP cytotoxicity in a dose-dependent manner

PDE3A and SLFN12 complex formation [5]: weakly | Tm (° C.) [6]: 56.6 ± 0.0 °C | ΔTm at 100 µM [6]: 4.2 °C
SMILES: O=C1CN2Cc3c(ccc(Cl)c3Cl)N=C2N1 [anagrelide, 6,7-dichloro-1,5-dihydroimidazo (2,1-b)quinazolin-2(3H)-one]

SMILES: CN(C(=O)CCCOc1ccc2[nH]c(=O)ccc2c1)C1CCCCC1 [cilostamide]
rescue of DNMDP cytotoxicity / competition with DNMDP [1]: able to rescue DNMDP cytotoxicity in a dose-dependent manner

SMILES: CCN(CCOCCOCCNC(=O)OC(C)(C)C)c1ccc(C2=NNC(=O)C[C@H]2C)cc1 [DNMDP-2L, tert-butyl (R)-(2-(2-(2-(ethyl(4-(4-methyl-6-oxo-1,4,5,6-tetrahydropyridazin-3-yl)phenyl)amino)ethoxy)ethoxy)ethyl)carbamate]
rescue of DNMDP cytotoxicity / competition with DNMDP [1]: same DNMDP cytotoxicity rescue phenotype as non-cytotoxic PDE3 inhibitors

SMILES: CCCc1nc(C)c2c(=O)[nH]c(-c3cc(S(=O)(=O)N4CCN(CC)CC4)ccc3OCC)nn12 [vardenafil, 4-[2-ethoxy-5-(4-ethylpiperazin-1-yl)sulfonyl-phenyl]-9-methyl-7-propyl-3,5,6,8-tetrazabicyclo[4.3.0]nona-3,7,9-trien-2-one]
rescue of DNMDP cytotoxicity / competition with DNMDP [1]: not effective competitors
